From ChEMBL document CHEMBL5604062, “ASAP - ZIKV NS2B-NS3 protease fluorescence dose response” (2024)
Where “and” joins values, the source holds several entries; their conditions need not be identical. Equal values may be shown once.

Target: Nonstructural protein 3 (Zika virus, UniProt A0A024AXB9)
Assay: Functional biochemical assay to identify treatments for viral infectious disease that targets Zika NS2B-NS3 protease. Utilizing a direct enzyme activity measurement method, reading the fluorescence intensity is used to characterize the relative potency of inhibitors as IC50.
Design: species or system PRVABC59

Sequence of Nonstructural protein 3 (A0A024AXB9 whole entry): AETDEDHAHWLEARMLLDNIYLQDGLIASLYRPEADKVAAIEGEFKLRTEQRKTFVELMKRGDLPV

Row | SMILES | IC50
1 | NS(=O)(=O)c1ccccc1N1CCN(Cc2c[nH]c3ccccc23)CC1 | > 99.5 µM
2 | Cc1cc(C(=O)Nc2ccc3c(c2)CNC3)c2cn[nH]c2c1 | 0.077 µM and 0.066 µM
3 | CNC(=O)[C@H](Nc1ccc(-c2nnn[nH]2)cc1)c1cc(Cl)cc(C2CC2)c1 | > 99.5 µM
4 | O=C(Nc1ccc2c(c1)CNC2)c1ccc(OCC(F)(F)F)nc1 | 22.2 µM
5 | N#Cc1cc2c(cc1NC(=O)c1cc(F)cc3[nH]ncc13)CNC2 | 16 nM (2×) and < 12 nM
6 | CCn1c(=O)c(N2CC3(CCC3)C[C@@H]2C)nc2ccccc21 | > 99.5 µM
7 | CCc1ccc(NS(=O)(=O)c2ccc(Oc3ccccc3Cl)cc2)c(C(=O)NC)c1 | > 99.5 µM
8 | COc1ccc(-c2cccc([C@H](NC(=O)OCc3ccccc3)C(=O)Nc3cccc(CN)c3)c2)c(C#N)c1 | 11.2 µM
9 | CN(C)C(=O)CCCc1nc2c(C(=O)Nc3ccc4c(c3)CNC4)cc(Cl)cc2[nH]1 | 0.28 µM
10 | O=C(c1cc(Cl)ccc1NS(=O)(=O)c1ccc(Oc2ccccc2Cl)cc1)N1CCC[C@H](O)C1 | > 99.5 µM
11 | C#C[C@H](Nc1cc([C@H]2CCOC2)ccn1)c1cc(C2CC2)n(C)n1 | > 25 µM
12 | CNC(=O)[C@H](Nc1cccc(-c2nn[nH]n2)c1)c1cc(Cl)cc2[nH]ncc12 | 9.2 µM
13 | COC(=O)c1cc(Cl)cc(S(=O)(=O)Nc2cccc(-c3nnn[nH]3)c2)c1F | > 99.5 µM
14 | N#Cc1cccc2c(CN3CCC(c4cscn4)CC3)c[nH]c12 | > 99.5 µM
15 | CN(c1ccc2c(c1)CNC2)[C@H](C(=O)NCC(F)F)c1cc(Cl)cc(C2CC2)c1 | 0.032 µM and 0.017 µM
16 | O=C(O)c1cc(Cl)ccc1S(=O)(=O)N[C@H]1CCn2c(nnc2C(F)(F)F)C1 | > 99.5 µM
17 | Cc1c(C(=O)Nc2cc(C(=O)N(C)[C@H]3C[C@H](O)C3)ccn2)cc(C2CC2)n1C | > 25 µM
18 | O=C(O)c1cc(Cl)ccc1S(=O)(=O)Nc1nn(Cc2ccccc2)cc1Cl | > 99.5 µM
19 | CCCC[C@H](NC(C)=O)C(=O)N[C@H](C(=O)Nc1ccc(C(N)=O)cc1)c1ccc(OCc2ccccc2)cc1 | > 99.5 µM
20 | C[C@H](NC(=O)c1cc(Cl)cc2[nH]ncc12)c1ccc2c(c1)CNC2 | 1.28 µM

Row | SMILES | IC50
21 | CC(C)O[C@]1(C)C(=O)Nc2cc(F)cc(C(=O)Nc3ccc4c(c3)CNC4)c21 | 1.26 µM
22 | Cc1cccc(-c2nc3c(C(=O)Nc4ccc5c(c4)CNC5)cc(F)cc3[nH]2)c1 | 0.112 µM and 0.159 µM
23 | C[C@H](NC(=O)c1cccc2c1CC(=O)N2)c1cccc(S(C)(=O)=O)c1 | > 25 µM
24 | Clc1cccc([C@H](C#Cc2ccccc2)Nc2cccc(-c3nn[nH]n3)c2)c1 | 16.8 µM
25 | O=C(Nc1ccc2c(c1)CNC2)c1ccc(OC(F)(F)F)cc1 | > 25 µM
26 | COc1cc(COc2cncc3ccccc23)nc(N2CCNCC2)n1 | > 99.5 µM
27 | Cc1c(C(=O)Nc2cc(C(=O)N3CC(CO)C3)ccn2)cc(C2CC2)n1C | > 25 µM
28 | C=C[C@H]1NCc2cc(NC(=O)c3cc(F)cc4[nH]ncc34)ccc21 | 0.359 µM
29 | O=C(N[C@@H](C(=O)NCc1cccc2c1CCNC2)c1ccc(OCc2ccccc2)cc1)OCc1ccccc1 | 39.4 µM
30 | CCn1nc(-c2ccccc2)cc1NS(=O)(=O)c1ccc(Cl)cc1C(=O)O | 29.6 µM
31 | O=C(O)c1cc(Cl)ccc1S(=O)(=O)Nc1ccc(-c2cccc(F)c2)cc1 | > 99.5 µM
32 | CS(=O)(=O)c1ccc(-c2ccc(S(=O)(=O)Nc3ccc(Cl)cc3C(=O)O)cc2)cc1 | 77.5 µM
33 | O=C(O)c1c(F)cc(F)cc1NS(=O)(=O)c1ccc(Oc2ccccc2Cl)cc1 | > 99.5 µM
34 | O=C(O)c1cc(Cl)ccc1CNS(=O)(=O)c1ccc(Oc2ccccc2Cl)cc1 | > 99.5 µM
35 | c1ccc2c(CN3CC(c4cscn4)C3)c[nH]c2c1 | > 99.5 µM
36 | O=C1c2c(O)ccc([N+](=O)[O-])c2C(=O)c2c([N+](=O)[O-])ccc(O)c21 | 57.1 µM
37 | OCc1ccc(Cl)c(N2CCN(c3ccc4[nH]cnc4c3)CC2)n1 | > 99.5 µM
38 | CCOc1cccc(-c2ccc(S(=O)(=O)Nc3ccc(Cl)cc3C(=O)O)cc2C)c1 | 11.1 µM
39 | NCc1cccc(NC(=O)[C@H](NC(=O)CCc2ccccc2)c2ccc(OCc3ccccc3)cc2)c1 | 15.1 µM and 21.3 µM
40 | Cc1cc(CN)cc(NC(=O)c2cc(Cl)cc(NC(=O)OCc3ccccc3)c2)c1 | 5.16 µM

Row | SMILES | IC50
41 | Cc1c(C(=O)Nc2cc(C(=O)N3CCC[C@H]3C(N)=O)ccn2)cc(C2CC2)n1C | > 25 µM
42 | CC[C@H](Cc1nnn[nH]1)c1ccc(NC(=O)c2cc(Cl)cc(-n3cccc3)c2)cc1 | 52.9 µM
43 | NC[C@H]1C[C@@H](NC(=O)c2cc(Cl)ccc2NS(=O)(=O)c2ccc(Oc3ccccc3Cl)cc2)C1 | > 99.5 µM
44 | CC(=O)Nc1cc(Br)cc(C(=O)Nc2ccc3c(c2)CNC3)c1 | 0.082 µM and 0.069 µM
45 | C[C@]1(OCCCO)C(=O)Nc2cc(F)cc(C(=O)Nc3ccc4c(c3)CNC4)c21 | 0.768 µM
46 | CC(C)N1CCc2nc(NC(=O)c3cc(Cl)cc(NC(=O)OCc4ccccc4)c3)sc2C1 | > 99.5 µM
47 | CCNC(=O)c1cn(CC)c(=O)c(N2CC[C@@H](CO)C2)n1 | > 99.5 µM
48 | CC(C)[C@H](CC(=O)O)NC(=O)c1cc(Cl)cc(NC(=O)OCc2ccccc2)c1 | > 99.5 µM
49 | O=C(NCC(F)F)[C@H](Nc1ccc2c(c1)CNC2)c1cc(Cl)cc(Cl)c1Cl | 0.069 µM and 0.065 µM
50 | COC(=O)c1cc(C(=O)Nc2ccc3c(c2)CNC3)cc2[nH]ccc12 | > 25 µM
51 | c1ccc([C@@H]2C[C@H]3C[C@@H]2C[C@H]3NCc2n[nH]c3ccccc23)cc1 | > 99.5 µM
52 | NCc1cccc(NC(=O)[C@H](NC(=O)COc2ccccc2)c2ccc(OCc3ccccc3)cc2)c1 | 26.5 µM
53 | NCc1cccc(NC(=O)[C@@H](NC(=O)OCc2ccccc2)c2cccc(OCc3cncnc3)c2)c1 | > 99.5 µM
54 | COc1cc(COc2cccnc2F)nc(N2CCNCC2)n1 | > 99.5 µM
55 | O=C(N[C@@H](C(=O)Nc1ccccn1)c1ccc(OCc2ccccc2)cc1)OCc1ccccc1 | > 99.5 µM
56 | CC(C)Cn1cccc(C(=O)Nc2ccnc3ccccc23)c1=O | > 99.5 µM
57 | CCn1cc(-c2cccc(-n3cccn3)c2)nc(N2CC[C@@H](CO)C2)c1=O | > 99.5 µM
58 | OC[C@H]1CCN(c2ccnc(C(F)F)c2)C1 | > 99.5 µM

Results, then the compound that gave them:

Row | IC50 | SMILES
59 | > 99.5 µM | CCC1([C@H](NC(=O)OCc2ccccc2)C(=O)Nc2cccc(CN)c2)CCCCC1
60 | 11.5 µM | NCc1cccc(NC(=O)c2cc(Cl)cc(N3CCCC3=O)c2)c1
61 | 83.1 µM and 78.1 µM | NCc1cccc(NC(=O)C[C@H](NC(=O)OCc2ccccc2)C2CCCCC2)c1
62 | 33.1 µM | NCc1cccc(NC(=O)[C@H](NC(=O)c2ccccc2Cl)c2ccc(OCc3ccccc3)cc2)c1
63 | 0.457 µM | CCc1cc(Cl)cc(C(=O)Nc2ccc3c(c2)CNC3)c1
64 | > 99.5 µM | O=C(Nc1cc(Cl)cc(C(=O)Nc2nccn2C2CNC2)c1)OCc1ccccc1
65 | > 99.5 µM | NCc1cccc(NC(=O)c2cc(NC(=O)OCc3ccccc3)cc3c2OC(F)(F)O3)c1
66 | > 99.5 µM | NCc1cccc(NC(=O)c2cc(Cl)cc(Cl)c2OCc2ccccc2)c1
67 | > 99.5 µM | CCc1cc(C(=O)Nc2cccc(-c3nnn[nH]3)c2)sc1C
68 | > 99.5 µM | NCc1cccc(NC(=O)[C@H](NC(=O)OCc2ccccc2)c2cccc(OC[C@H]3COCCO3)c2)c1
69 | > 99.5 µM | CCn1ncc2c(C(=O)Nc3cccc(CN)c3)cc(C)nc21
70 | > 25 µM | O=C1Cc2c(cccc2C(=O)Nc2ccn(C[C@H]3CCOC3)n2)N1
71 | 79.4 µM | NCc1ccc(/C=C/C(=O)C(=O)N2CCOCC2)cc1
72 | > 99.5 µM | NCc1cccc(NC(=O)c2cc(C3CC3)nc3c(Cl)cnn23)c1
73 | 68.7 µM | NCc1cccc(NC(=O)[C@@H](NC(=O)OCc2ccccc2)c2ccc(C3=CCCOC3)cc2)c1
74 | 67.6 µM | O=Cc1ccc(N2CCC(C(=O)Nc3ccc(Br)cc3O)CC2)cc1
75 | > 99.5 µM | CCOC1CC(S(=O)(=O)N[C@H](C(=O)Nc2cccc(CN)c2)c2ccc(OCc3ccccc3)cc2)C1 (some centres not stated)
76 | > 99.5 µM | NCc1cccc(NC(=O)[C@H](NC(=O)OCc2ccccc2)C2CCN(C(=O)C3CCOCC3)CC2)c1
77 | 0.031 µM and 0.023 µM | O=C(Nc1ccc2c(c1)CNC2)c1cc(Cl)cc2c1cnn2C1CCC1
78 | > 99.5 µM | NCc1cccc(NC(=O)[C@H](NC(=O)OCc2ccccc2)c2cccc(-c3cncc(F)c3)c2)c1
79 | > 99.5 µM | NCc1cccc(NC(=O)[C@@H](NC(=O)OCc2ccccc2)C2CCN(S(=O)(=O)Cc3ncon3)CC2)c1
80 | 33.1 µM | NC12CCC(CNC(=O)c3cc(Cl)cc(NC(=O)OCc4ccccc4)c3)(CC1)OC2

Row | IC50 | SMILES
81 | > 99.5 µM | NCc1cccc(NC(=O)[C@H](NS(=O)(=O)C[C@H]2COCCO2)c2ccc(OCc3ccccc3)cc2)c1
82 | > 99.5 µM | CC(C)(C)OC(=O)NCc1cccc(NC(=O)c2cc(N)cc(Cl)c2)c1
83 | > 99.5 µM | Cn1cc(C(=O)N2CCC([C@H](NC(=O)OCc3ccccc3)C(=O)Nc3cccc(CN)c3)CC2)cn1
84 | 0.052 µM and 0.037 µM | N#CCCNC(=O)[C@H](Nc1ccc2c(c1)CNC2)c1cc(Cl)cc(C2CC2)c1
85 | > 99.5 µM | NCc1cccc(NC(=O)C2CCNCC2)c1
86 | 0.027 µM and 0.025 µM | O=C(Nc1ccc2c(c1)CNC2)c1cc(Br)cc2[nH]c(=O)[nH]c12
87 | 32.3 µM | NCc1cccc(NC(=O)[C@@H](NC(=O)OCc2ccccc2)c2cccc(-c3ccc(CN)cc3F)c2)c1
88 | 22.1 µM | NCc1cccc(NC(=O)c2cc(Cl)cc(CNC(=O)OCc3ccccc3)c2)c1
89 | > 99.5 µM | NCc1cccc(NC(=O)c2cc(C(F)(F)F)nn2CC2CCC2)c1
90 | 14.8 µM | C=C(C)c1cc(NC(=O)OCc2ccccc2)cc(C(=O)Nc2cccc(CN)c2)c1
91 | > 99.5 µM | C[C@@H]1CCC[C@H](C(=O)Nc2cccc(CN)c2)O1
92 | > 25 µM | NCc1cc(Cl)cc(C(=O)Nc2cc([C@H]3CCOC3)ccn2)c1
93 | > 99.5 µM | CCc1nc(C(=O)Nc2cccc(CN)c2)nn1-c1c(Cl)cccc1Cl
94 | > 99.5 µM | Cc1c(C(=O)Nc2cccc(CN)c2)cc(C2CC2)n1C
95 | 0.362 µM | O=C(Nc1ccc2c(c1)CNC2)c1cc(F)cc(C2=CCOCC2)c1
96 | > 25 µM | Cc1c(C(=O)Nc2cc(CCCN)ccn2)cnn1C1CC1
97 | > 25 µM | O=C1Cc2c(cccc2C(=O)Nc2ccc(O[C@H]3CCOC3)nc2)N1
98 | 2.87 µM | O=C(Nc1ccc2c(c1)CNC2)c1cccc2c1OCO2
99 | 23.2 µM | O=C(NCc1ccc2c(c1)CCNC2)c1cc(Cl)cc2[nH]ncc12
100 | 69.2 µM | Cc1c(C(=O)Nc2cc(CCCN)ccc2F)cc(C2CC2)n1C
101 | 69.7 µM | N[C@H]1CC[C@H](NC(=O)c2cc(Cl)cc(NC(=O)OCc3ccccc3)c2)C1
102 | > 99.5 µM | O=Cc1cc(Cl)cc(NC(=O)OCc2ccccc2)c1
